Results published in patent US20120130078A1, “INDAZOLE DERIVATIVES AS ADENOSINE MONOPHOSPHATE DEAMINASE (AMPD) INHIBITORS FOR USE IN DIABETES AND RELATED DISEASES OF METABOLIC SYNDROME” (priority 2010, published 2012).

Columns and labels:
L6 cells [1] = test: Palmitate (fatty acid) oxidation assay in L6 cells; assay type: cell-based; conditions: FIG. 2, 3, 11
Description: Palmitate oxidation was determined by a modification of quantitative measuring the rate of ^14CO2 production from ^14C-labeled palmitic acid as described previously (24). The KHB for these incubations was supplemented with fatty-acid poor albumin, dialyzed against the same buffer (three changes). The final albumin concentration was 1%. After an initial 10 min of incubation, all samples received 2 mM carnitine and [1-^14C]-palmitic acid (1 μCi/mole), and other additions as noted, and incubations continued to the end of 3 h. Aliquots of 0.8 mL were taken from each well to an eppendorf tube. […] 200 μL of 3 M perchloric acid was carefully added to the 0.8 mL to ensure no acid was deposited on the side of the tube, and the lid was quickly closed. The tubes were incubated overnight to allow the [^14C] CO2 to be absorbed into the wick. The caps were removed with scissors and placed in 10 mL of liquid scintillation fluid for counting.

AMP deaminase (AMPD) = test: AMP deaminase enzymatic assay (in vitro); assay type: biochemical; conditions: for AMPD inhibition, comparison of three synthesized compounds: FIG. 9
Description: AMP deaminase activity was measured as described by Ashby and Frieden (4). Standard assay monitored the absorbance change at 285 nm as a result of AMP conversion to IMP in a reaction volume of 2 mL containing 50 mM imidazole-HCl (pH 7.0), 2 mM AMP and 150 mM KCl. One unit of enzyme activity is defined as the amount of protein required to produce 1 μmol IMP per min at 25° C. under standard conditions.

L6 cells [2] = test: Ammonia assay, ammonia formation by intact cells; assay type: cell-based; conditions: FIG. 7, 12
Description: Ammonia was measured as described by Kun et al. (19). Briefly, after two hours incubation with or without 10 mM metformin, 0.5 mL of samples were added into cuvette and mixed with assay reagents (100 mM Tris buffer, 10 mM α-ketoglutaric acid, 0.24 mM NADH in 1 mL). Absorbance was measured at 340 nm with spectro-photometer (Hitachi, U-2000). 20 μL of glutamate dehydrogenase (200 μg/mL) was added into cuvette and mixed, and absorbance was measured again after 1 hour at 340 nm.

L6 cells [3] = test: Glucose uptake assay (2-deoxyglucose uptake) in L6 cells; assay type: cell-based; conditions: FIG. 1, 4, 10
Description: Glucose uptake was determined as the rate of 2-deoxy-D-[2,6-^3H]glucose uptake, using modification of a previous method (15). The cells were first incubated for 15 min with Krebs-Henseleit Bicarbonate buffer (KHB), glucose, and other agents as indicated. At this point, the labeled deoxyglucose (0.6 μCi) was added to each well and the incubation continued for 45 min. The media was aspirated, and the wells were washed three times with ice-cold KHB to remove exogenous label. The cells were lysed by the addition of 0.1% Triton-X100 (1 mL). Samples of each well were mixed with aqueous scintillation fluid and measured by liquid scintillation counting.

AMPK = test: Phosphorylation of AMPK; assay type: cell-based
L6 muscle cell line [4] = test: Glycogen synthesis in L6 muscle cell line; assay type: cell-based
[5] = test system: cells with adenylate kinase knockout; test: Metformin action in cells with adenylate kinase knockout (siRNA); assay type: cell-based; conditions: adenylate kinase knockout using siRNA; FIG. 5
L6 muscle cell line [6] = test: Lactate formation in L6 muscle cell line; assay type: cell-based
acetyl CoA carboxylase = test: Phosphorylation of acetyl CoA carboxylase; assay type: cell-based

SMILES	AMPD inhibition, comparison of three synthesized compounds (AMP deaminase (AMPD))	palmitate / fatty acid oxidation (L6 cells [1])	ammonia formation (L6 cells [2])	glucose transport / glucose uptake (L6 cells [3])	further results
C=C(C)[C@H]1Cc2c(ccc3c2O[C@@H]2COc4cc(OC)c(OC)cc4[C@@H]2C3=O)O1 [rotenone]		leads only to inhibition of fatty acid oxidation		does increase glucose uptake	
CN(C)C(=N)N=C(N)N [metformin]		stimulation	decrease in ammonia formation	stimulation of glucose transport	phosphorylation of the AMPK (AMPK): direct phosphorylation of the AMPK; glycogen synthesis (L6 muscle cell line [4]): inhibition of glycogen synthesis; effect of adenylate kinase deletion on metformin action [5]: no effect; lactate formation (L6 muscle cell line [6]): stimulation; AMPD activity measured in vitro (AMP deaminase (AMPD); FIG. 6): inhibited AMPD activity; phosphorylation of acetyl CoA carboxylase (acetyl CoA carboxylase): phosphorylation
[NH-]c1c[n+](N2CCOCC2)no1 [SIN-1]		inhibits fatty acid oxidation		stimulation of glucose transport	

More lines, main results first:

AMPD inhibition, comparison of three synthesized compounds (AMP deaminase (AMPD))	SMILES	palmitate / fatty acid oxidation (L6 cells [1])	ammonia formation (L6 cells [2])	glucose transport / glucose uptake (L6 cells [3])	further results
similar	COC(=O)c1n[nH]c2ccccc12 [SKTT-2, methyl 1H-indazole-3-carboxylate]	replicated the metformin stimulation of fatty acid oxidation	suppressed ammonia formation	stimulated glucose uptake	
somewhat less effective	COC(=O)c1cccc2[nH]ncc12 [SKTT-12, methyl 1H-indazole-4-carboxylate]				
similar	NC(=O)c1n[nH]c2ccccc12 [SKTT-1, 1H-indazole-3-carboxamide]	replicated the metformin stimulation of fatty acid oxidation	suppressed ammonia formation	stimulated glucose uptake	AMPD inhibition curves, potency compared with metformin (AMP deaminase (AMPD); FIG. 8, compared with metformin): more potent
